# Reference: US20030139371A1, “Drug for combating sexual dysfunctions” (priority 2000, published 2003)
# Key:
# [1] = tested on: corpus cavernosum smooth muscle from male rabbits; assay: Relaxation of phenylephrine-precontracted corpus cavernosum smooth muscle in organ chambers, male rabbits; set-up: species or system rabbit; conditions: for relaxation of the corpus cavernosum smooth muscle in the presence of aspirin / relaxation of the corpus cavernosum smooth muscle: male rabbits, after phenylephrine precontraction; for relaxation of the corpus cavernosum smooth muscle in the presence of aspirin: purine 10^-3M combined with aspirin 10^-3M; for relaxation of the corpus cavernosum smooth muscle: purine alone at 10^-3M
# [2] = tested on: corpus cavernosum smooth muscle from female rabbits; assay: Relaxation of phenylephrine-precontracted corpus cavernosum smooth muscle in organ chambers, female rabbits; set-up: species or system rabbit; conditions: after phenylephrine precontraction; for relaxation of the corpus cavernosum in the presence of aspirin: purine 10^-3M in the presence of aspirin; for relaxation of the corpus cavernosum: purine alone at 10^-3M
# [3] = tested on: isolated rabbit corpus cavernosum; assay: Isolated rabbit corpus cavernosum in organ chambers, sex not specified or both sexes; conditions: for potentiation of the relaxant effect of purine by the NSAID: NSAID in place of aspirin, combined with purine
# Description: The in vitro model we used was that of the isolated rabbit corpus cavernosum in organ chambers. […] In fact, the best correlations with the results found in humans have been found in the rabbit; see, e.g., Bush P. A., Aronson W. J., Buga G. M., Rajfer J., Ignarro L. J., J. Urol. 147(6); 1650-1655 (1992); Knispel H. H., Goessel C., Bechman R., Urol. Res. 20(4); 253-257 (1992); Holmquist F., Hedlund H., Andersson K. E., J. Physiol. (London) 449; 295-311 (1992); and Cellek S., Moncada S., Proc. Natl. Acad. Sci. USA 94(15); 8226-8231 (1997).
# The relaxant action of purines was studied in this model either with purines alone or with an inhibitor of NO synthesis (N-omega-nitro-L-arginine, or L-NNA) so as to investigate whether the regulation by purines of the production of NO is a component of the relaxant effect of purines.
# In a similar manner, we investigated whether the presence of an inhibitor of the synthesis of prostaglandins (cyclooxygenase inhibitor) modified the effects of purine. If the action of purine could be explained in part by an indirect effect via prostaglandins, we would expect to see a decrease in the effect of purine in the presence of the cyclooxygenase inhibitor.
# This study was performed in vitro on corpus cavernosum smooth muscles from male and female rabbits. The technique is that of organ chambers.
# The study was performed on male and female rabbits.
smiles,measurement,setting,value
Nc1ncnc2c1ncn2[C@@H]1O[C@H](COP(=O)(O)O)[C@@H](O)[C@H]1O [AMP],relaxation of the corpus cavernosum smooth muscle in the presence of aspirin,[1],92%
same,relaxation of the corpus cavernosum smooth muscle,[1],70%
same,relaxation of the corpus cavernosum in the presence of aspirin,[2],36%
same,relaxation of the corpus cavernosum,[2],20%
"Nc1ncnc2c1ncn2[C@@H]1O[C@H](COP(=O)(O)OP(=O)(O)OP(=O)(O)O)[C@@H](O)[C@H]1O [ATP, adenosine triphosphate]",relaxation of the corpus cavernosum smooth muscle in the presence of aspirin,[1],57%
same,relaxation of the corpus cavernosum smooth muscle,[1],35%
same,relaxation of the corpus cavernosum in the presence of aspirin,[2],50%
same,relaxation of the corpus cavernosum,[2],31%
"NC(=NCCC[C@H](N)C(=O)O)N[N+](=O)[O-] [L-NNA, N-omega-nitro-L-arginine]",decrease of the relaxant effect of purine in the presence of an inhibitor of NO synthesis,[3]; compared with purine alone,about 15%
"CC(=O)Oc1ccccc1C(=O)O [aspirin, acetylsalicylic acid, reference compound]",vasoactivity of the NSAID by itself on this model,[1]; aspirin alone,not vasoactive
COc1ccc2c(c1)c(CC(=O)O)c(C)n2C(=O)c1ccc(Cl)cc1 [indomethacin],potentiation of the relaxant effect of purine by the NSAID,[3],confirmed
Cc1cccc(Nc2ccccc2C(=O)O)c1C [mefenamic acid],potentiation of the relaxant effect of purine by the NSAID,[3],confirmed
O=C(O)c1ccccc1O [salicylic acid],potentiation of the relaxant effect of purine by the NSAID,[3],confirmed
